According to PMC5025758 (Nature Communications, 2016):

How the values were obtained:
[1] = target: KasA (Mycobacterium tuberculosis, UniProt P9WQD9); type: biochemical
[2] = target: the molecule itself; test: crystal structure

KasA, sequence (P9WQD9 whole entry): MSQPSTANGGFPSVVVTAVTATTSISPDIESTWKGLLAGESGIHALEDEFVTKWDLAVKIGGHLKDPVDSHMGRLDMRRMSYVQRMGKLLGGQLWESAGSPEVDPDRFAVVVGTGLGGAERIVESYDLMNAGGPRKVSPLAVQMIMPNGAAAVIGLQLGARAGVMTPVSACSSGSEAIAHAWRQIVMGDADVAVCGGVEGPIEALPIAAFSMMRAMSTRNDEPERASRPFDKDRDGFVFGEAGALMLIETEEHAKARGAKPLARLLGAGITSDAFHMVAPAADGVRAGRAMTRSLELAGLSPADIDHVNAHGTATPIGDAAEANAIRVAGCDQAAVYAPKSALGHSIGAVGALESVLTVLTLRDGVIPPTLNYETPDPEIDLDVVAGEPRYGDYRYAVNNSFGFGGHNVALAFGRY

| Molecule | Kd [1] [µM] | stoichiometry N [2] |
| --- | --- | --- |
| CCCCS(=O)(=O)N(C)c1ccc2cnn(C)c2c1 [compound 2, inactive analogue 2] | 4.5 |  |
| β-ketoacyl synthase KasA (Mycobacterium tuberculosis) (enzyme, also called Rv2245) SQPSTANGGFPSVVVTAVTATTSISPDIESTWKGLLAGESGIHALEDEFVTKWDLAVKIGGHLKDPVDSHMGRLDMRRMSYVQRMGKLLGGQLWESAGSPEVDPDRFAVVVGTGLGGAERIVESYDLMNAGGPRKVSPLAVQMIMPNGAAAVIGLQLGARAGVMTPVSACSSGSEAIAHAWRQIVMGDADVAVCGGVEGPIEALPIAAFSMMRAMSTRNDEPERASRPFDKDRDGFVFGEAGALMLIETEEHAKARGAKPLARLLGAGITSDAFHMVAPAADGVRAGRAMTRSLELAGLSPADIDHVNAHGTATPIGDAAEANAIRVAGCDQAAVYAPKSALGHSIGAVGALESVLTVLTLRDGVIPPTLNYETPDPEIDLDVVAGEPRYGDYRYAVNNSFGFGGHNVALAFGRY |  | 2 |
